Test system: superoxide dismutase (SOD)
Experiment: Influence of small-molecule substances on SOD enzyme activity and thermal stability at 80° C.
Format: biochemical
Conditions: experimental group 1: 100 μL SOD solution (1×10^−4 mol/L) + 100 μL substance solution (1×10^−3 mol/L); water bath 80° C., 4 hours, enzyme activity every 20 minutes; vs SOD blank control; FIG. 1
Experimental: SOD solution: Mr(SOD)=37.8 kDa, 37.8 mg of SOD was weighed and dissolved in 10 mL of phosphate buffer to obtain a stock solution of CSOD=1×10^−4 mol/L.
Experimental group 1: 100 μL of the SOD solution was taken out and added to each of […] 10 mL centrifuge tubes, and then 100 μL of the solution of each of the vitamin C, the vitamin p, the catechin, the quercetin, the myricetin, the kaempherol, the ellagic acid, and the ferulic acid was added to each of the […] centrifuge tubes. Another 100 μL of the SOD solution was taken out as blank control. The centrifuge tubes and the blank control were placed in a water bath at 80° C., incubated for 4 hours, and detected for enzyme activity every 20 minutes. […]

Compound | activity of the SOD | thermal stability of the SOD
catechin | improve the activity of the SOD | significantly improve the thermal stability of the SOD
O=c1c(O)c(-c2cc(O)c(O)c(O)c2)oc2cc(O)cc(O)c12 [myricetin] | improve the activity of the SOD | significantly improve the thermal stability of the SOD
O=C1O[C@H]([C@@H](O)CO)C(O)=C1O [vitamin C] | improve the activity of the SOD | significantly improve the thermal stability of the SOD
COc1cc(/C=C/C(=O)O)ccc1O [ferulic acid] | improve the activity of the SOD | significantly improve the thermal stability of the SOD
vitamin P | improve the activity of the SOD | significantly improve the thermal stability of the SOD
O=c1c(O)c(-c2ccc(O)c(O)c2)oc2cc(O)cc(O)c12 [quercetin] | improve the activity of the SOD | significantly improve the thermal stability of the SOD
O=c1c(O)c(-c2ccc(O)cc2)oc2cc(O)cc(O)c12 [kaempherol] | improve the activity of the SOD | significantly improve the thermal stability of the SOD
O=c1oc2c(O)c(O)cc3c(=O)oc4c(O)c(O)cc1c4c23 [ellagic acid] | improve the activity of the SOD | significantly improve the thermal stability of the SOD
Cc1ncc(C[n+]2csc(CCO)c2C)c(N)n1 [Vb1, vitamin B1, reference compound] | fails to improve the activity and thermal stability of SOD enzymes | fails to improve the activity and thermal stability of SOD enzymes

Reference: patent US20220202939A1, “PREPARATION FOR IMPROVING ACTIVITY AND/OR THERMAL STABILITY OF SUPEROXIDE DISMUTASE, AND APPLICATION THEREOF” (CHINA AGRICULTURAL UNIVERSITY, priority 2020, published 2022)
